Measurements taken from patent US6492325B1, “Use of α1β1 integrin receptor inhibitors and TGF-β1 inhibitors in the treatment of kidney disease” (Boys Town National Research Hospital, priority 1998, dated 2002).

Legend:
double knockout mice [1] = test: Immunoperoxidase staining for collagen type I and fibronectin in tubulointerstitium of double knockout mice; format: in vivo, mouse; conditions: 10 week old double knockout mice
Description: E. Immunoperoxidase Detection: The immunoperoxidase detection method was used in immunostaining for TGF-β1 in glomeruli as well as fibronectin and collagen type I in tubunointerstitium. The collagen type I antibody is rabbit anti-mouse, and was purchased from Biogenesis, Inc. (Sandown, N.H.). The antisera was used at a 1:100 dilution for immunoperoxidase staining. The fibronectin antibody used was the same as for immunfluorescence staining (a rabbit anti-human fibronectin antisera from Sigma Chemical Company, St. Louis, Mo.), and was used at a 1:100 dilution. […]
(§1) Mice (DKO mice are null for both the collagen α3(IV) and integrin α1 genes) were injected with TGF-β1 inhibitors FK506 (2 μg/gram body weight, twice weekly, intraperitoneal injections) or Biogen's TGF-β1 soluble receptor (25 μg per injection, twice weekly, intravenous injections) starting at four weeks of age. The kidneys were taken at 10 weeks of age and analyzed. […]
The role of TGF-β1 in upregulation of matrix proteins and in renal fibrosis has been well established (Yang et al., J. Am. Soc. Nephrol., 5:1610-1617, 1995; Border and Ruoslahti, J. Clin. Invest., 90:1-7, 1992). […] Animals injected with TGF-β1 inhibitors were analyzed using three markers for interstitial fibrosis and compared directly with 10 week old double knockout animals that were not treated with inhibitors. […]

129 Sv/J Alport mouse [2] = test: TGF-β1 inhibitors in 129 Sv/J Alport mouse, scanning electron microscopy of glomeruli; format: in vivo; conditions: 7 week old Alport mice, treated twice weekly from 3 weeks of age
Description: B. Scanning Electron Microscopy: Small pieces (approximately 2 mm cubes) of kidney cortex were fixed in 3% phosphate buffered glutaraldehyde, then postfixed in 1% phosphate buffered osmium tetroxide. Samples were then dehydrated in graded ethanols, and critical point dried in carbon dioxide. The cubes were then cracked in pieces by stressing them with the edge of a razor blade, and mounted with glue onto stubs with the cracked surface facing upward. The surface was sputter coated with gold/palladium using well known procedures and visualized with a scanning electron microscope.
(§2) The experimental protocol was to inject with either FK506 (2 μg/g body weight, injected intraperitoneally, Fujisawa Pharmaceutical Co., Ltd., Osaka, Japan), or a soluble TGF-B1 receptor (25 μg/injection, intravenously through the tail vein, Biogen Inc., Cambridge, Mass.) twice weekly starting at 3 weeks of age. Kidneys were harvested at 7 weeks of age and subjected to the described analyses.
Some of the kidney specimen was processed for scanning electron microscopy. Glomeruli were exposed by freeze fracture of renal cortex, which removes the Bowman's capsule, exposing the outer layer of podocytes as they cover the capillary loops of the glomerulus. […]

129 Sv/J Alport mouse [3] = test: TGF-β1 inhibitors in 129 Sv/J Alport mouse, transmission electron microscopy of GBM ultrastructure; format: in vivo; conditions: 7 week old Alport mice, treated twice weekly from 3 weeks of age
Description: (§3) A. Transmission Electron Microscopy: Fresh external renal cortex was minced in 4% paraformaldehyde, allowed to fix for 2 hours, and stored at 5° C. in PBS (pH 7.4). The tissue was washed extensively (5 times for 10 minutes each at 4° C.) with 0.1M Sorenson's buffer (Sorenson's buffer was made by combining 100 ml of 200 mM monobasic sodium phosphate and 400 ml of 200 mM dibasic sodium phosphate with 500 ml of water, and adjusted to pH 7.4), and postfixed in 1% osmium tetroxide in Sorenson's buffer for 1 hour. The tissue was then dehydrated in graded ethanol (70%, then 80%, then 90%, then 100% for ten minutes each), and finally in propylene oxide and embedded in Poly/Bed 812 epoxy resin (Polysciences, Inc., Warrington, Pa.) following the procedures described by the manufacturer. In short, 42 ml of polybed 812 was mixed with 26 ml of dodecylsuccinic anhydride (DDSA, Polysciences, Inc.) and 24 ml of nadic methyl anhydride (Polysciences Inc.). One and a half mls of 2,4,6 tri(dimethly aminomethyl) phenol was added as a catalyst, and the activated resin frozen in 10 ml aliquots until needed for embedding specimen. Glomeruli were identified in 1 μm (micron) sections stained with toluidine blue, and thin sections were cut at 70 nm (nanometer) thickness using a Reichert Jung Ultracut E ultramicrotome (Cambridge Instrument Co, Vienna, Austria). […]

double knockout mice [4] = test: Northern blot of kidney RNAs (matrix molecules, Timp) in double knockout mice treated with TGF-β1 inhibitors; format: in vivo, mouse; conditions: 10 week old double knockout mice; untreated show nine-fold reduction relative to control
Description: A. Northern Blot Analysis: Kidneys were removed and snap frozen in liquid nitrogen and ground to a powder in liquid nitrogen using a mortar and pestle. The powder was solubilized in TRIZOL reagent (GibCo/BRL, Grand Island, N.Y.) using 5 ml of reagent per kidney. Total cellular RNA was extracted according to the manufacturer's instructions. Twenty micrograms (20 μg) of RNA was fractionated on a 1.0% agarose/formaldehyde/MOPS (3-(N-morpholino)propanesulfonic acid) gel by electrophoresis at 80V for 4 hours. Gels were soaked in water for 45 minutes, and transferred to Hybond N (uncharged nylon, New England Nuclear, Inc., Boston, Mass.) by capillary blot overnight using 750 mM ammonium acetate (in water) as a transfer buffer. The RNA was UV crosslinked to the blot using a Stratalinker (Stratagene, Inc., LaJolla, Calif.). […] The quality of the RNA preparations and the consistency of loading was assessed by staining gels with ethidium bromide and scanning the 18S and 28S ribosomal RNA bands using a Gel Imager 2000 digital imaging system instrument and software package (Applied Imaging, Santa Clara, Calif.). […] Quantitative densitometric scanning confirmed no more than a 10% variance in sample loading. […] Quantitative differences in expression were assessed by phosphorimage analysis using a BioRad GS-525 phosphorimager (Bio Rad, Inc., Hercules, Calif.), and subtracted for background hybridization. […]

129 Sv/J Alport mouse [5] = test: Dual immunofluorescence staining for laminin α2 chain in glomeruli of treated Alport mice; format: in vivo; conditions: 7 week old 129 Sv/J Alport mouse
Description: as §2
In dual fluorescence analysis, fresh renal cortex was embedded in Tissue Tek aqueous embedding compound, snap frozen, and cut at 4 microns on a cryostat. Slides were postfixed in cold (−20° C.) 100% acetone for 10 minutes, and then air dried overnight. Tissue was rehydrated by three washes in PBS for 10 minutes each. The primary antibodies were diluted together in 7% non-fat dry milk (BioRad). An anti-entactin antibody (Chemicon Inc.) was used as a known marker for glomerular basement membrane at a dilution of 1:200. The laminin α2 chain-specific antibody was a gift from Dr. Peter Yurchenco (Robert Wood Johnson Medical School, Piscataway, N.J.). The specificity of this antibody for the laminin α2 chain was illustrated in Cheng et al., J. Biol. Chem., 272:31525-31532, 1997. The antibody was used at a concentration of 1:10. Primary antibodies were allowed to react overnight at 4° C. in a humidified dish. […]

[6] = system: double knockout (DKO) mice; test: TGF-β1 inhibitors in double knockout mice, urinary albumin (proteinuria) by gel electrophoresis; format: in vivo, mouse
Description: Urine samples were collected at weekly intervals and 0.5 μl fractionated by electrophoresis through 10% denaturing acrylamide gels. The protein in the gels was stained with coomassie blue and photographed. Bovine serum albumin was used as a molecular weight standard.
Mice (DKO mice are null for both the collagen α3(IV) and integrin α1 genes) were injected with TGF-β1 inhibitors FK506 (2 μg/gram body weight, twice weekly, intraperitoneal injections) or Biogen's TGF-β1 soluble receptor (25 μg per injection, twice weekly, intravenous injections) starting at four weeks of age. The kidneys were taken at 10 weeks of age and analyzed. The 10 week time point was chosen since, in the double knockouts, the disease typically progresses to the point where significant irregular thickening of the GBM is observed, and the animals are beginning to progress towards end stage renal failure. Thus, if the TGF-β1 inhibitors are to provide additional protective benefits, those benefits should be evident at this stage in GBM disease progression. […] A typical example of these differences is illustrated in FIG. 14. […]
Proteinuria was examined in these same mice collected weekly during the course of treatment. Samples (equivalent to approximately one half of one microliter) were analyzed by electrophoresis on polyacrylamide gels. […]

[7] = system: double knockout (DKO) mice; test: TGF-β1 inhibitors in double knockout mice, transmission electron microscopy of GBM ultrastructure; format: in vivo, mouse; conditions: treated twice weekly from 4 weeks, kidneys taken at 10 weeks
Description: as §3, with “Inc.).” for “Inc.). One and a half mls of 2,4,6 tri(dimethly aminomethyl) phenol was added as a catalyst, and the activated resin frozen in 10 ml aliquots until needed for embedding specimen. Glomeruli were identified in 1 μm (micron) sections stained with toluidine blue, and thin sections were cut at 70 nm (nanometer) thickness using a Reichert Jung Ultracut E ultramicrotome (Cambridge Instrument Co, Vienna, Austria).”
as §1

C=CC[C@@H]1/C=C(\C)C[C@H](C)C[C@H](OC)[C@H]2O[C@@](O)(C(=O)C(=O)N3CCCC[C@H]3C(=O)O[C@H](/C(C)=C/[C@@H]3CC[C@@H](O)[C@H](OC)C3)[C@H](C)[C@@H](O)CC1=O)[C@H](C)C[C@@H]2OC [FK506, tacrolimus] was tested, and the “Collagen type I accumulation in interstitium of renal cortex” value (double knockout mice [1]) was “relative absence of collagen type I accumulation”, the “Surface of the glomerulus / podocyte foot processes (scanning electron microscopy)” value (129 Sv/J Alport mouse [2]) was “looks much the same as that in the untreated Alport mouse” and the “GBM thickening (transmission electron microscopy)” value (129 Sv/J Alport mouse [3]) was “obvious lack of basement membrane thickening”. For the same molecule, the “Podocyte foot process architecture (transmission electron microscopy)” value (129 Sv/J Alport mouse [3]) was “significant degree of swelling in the foot processes”, the “Timp-3 mRNA expression in kidney” value (double knockout mice [4]) was “reduction in Timp-3 expression is not observed” and the “Accumulation of laminin α2 in the GBM” value (129 Sv/J Alport mouse [5]) was “does not prevent the accumulation of laminin α2”. The “Performance of the glomerular filter (urinary albumin)” value ([6]; double knockout mice, relative to untreated double knockout mice, urine collected weekly) was “markedly improved”, the “Urinary protein bands related to nephrotoxic effects” value ([6]; normal and DKO mice treated with FK506) was “diffuse group of bands evident at every timepoint” and the “Focal GBM thickening and foot process effacement (transmission electron microscopy)” value [7] was “marked reduction of both focal GBM thickening and foot process effacement”.
